Data as given in US5928645A, “Extracted substance having anti-HIV activity” (Young Bok Han & Korean Assoc. of Creation Research, priority 1992, dated 1999).
Like-named read-outs stand apart in the source and are kept apart here.

Key:
HIV = settings: Tan et al. 1992; cited from earlier work
[1] = system: HIV-infected cells (T cell line SupT1); assay: Syncytium-formation assay (number of multinucleate cells); type: cell-based; settings: three-day incubation
Method: To evaluate toxicity of the extracted substances on a T cell line (SupT1), maximum acceptable concentrations of antiviral agents were determined as follows:
After incubation, the cells were treated with trypan blue. The number of cells that excluded the dye was counted using a hemocytometer. "TCID50 " is defined as the 50% tissue culture-infective dose. (Reference: Techniques in HIV research, ed. Aldovini, A., and Walter, B. D., Stockton Press, N.Y. Unitd States, Chapter 4. Quantitative assay for virus infectivity, pp. 71-73, 1990.) The 50% tissue culture-infective dose (TCID50) is calculated using the method of Reed and Muench (Dulbecco, R., "Endpoint Method-Measurement of the infectious titer of a viral sample" in the chapter entitled: The Nature of Viruses in Virology, Second Edition, J. P. Lippincott, Philadelphia, pp. 22-25, 1988). This method is applicable for measuring the infectious titer of a viral sample from an assay involving a series of progressive dilutions of virus. To generate the 50% endpoint dilution, an empirical pooling of the results is done after reading the plate for visible infection at all of the dilutions tested. In cell cultures, the tissue culture infective dose (TCID50) is the dilution of virus suspension that infects 50% of the cell cultures as measured by visible CPE.
After a three-day incubation the number of multinucleate cells in each culture were counted. As comparative tests, similar experiments were performed using AZT or berberine, rather than the extract of the present invention, to treat the cells.

reverse transcriptase = assay: Reverse transcriptase activity of HIV-infected H9 cells; type: cell-based; settings: 0.5 μg/ml
Method: The effect of the extract of the present invention on reverse transcriptase activity and on viral replication was also measured in H9 host cells. HIV infected H9 cells were cultured in RPMI 1640 supplemented with 10% (v/v) of heat-inactivated fetal calf serum and 1% (v/v) […] Every third day 1/4 of the cultures were transferred to new media containing the same concentration of the extract. The cultures were harvested after 9 days and centrifuged for 3 minutes in an Eppendorf centrifuge. 600 μl of supernatant was mixed 300 μl of 30% polyethylene glycol (PEG) and then centrifuged for 10 minutes. The pellet was resuspended in RT suspension buffer (50 mM Tris, pH 7.5, 1 mM DTT, 20% glycerol, 0.25% Triton X-100). These virus samples were frozen at -70° C. until assayed. Aliquots of virus (10 μl) were incubated with 20 μl of a cocktail containing 50 mM Tris, pH 7.5, 5 mM DTT, 5 mM MgCl2, 150 mM KCl, 0.05% Triton X-100, 0.3 mM glutathione, 0.5 mM EGTA, 50 μg/ml poly(rA)dT, 10μ Ci thymidine triphosphate, and 17.25 μl distilled water for 1 hour at 37° C. […] Precipitates were collected on Whatman GF/C glass fibers, washed several times with ice-cold 5% TCA and once with 70% ethanol, air dried and counted in a liquid scintillation counter.

[2] = system: ABEI-microperoxidase-H2 O2 system; assay: Antioxidant activity by chemiluminescence (inhibition of light intensity); type: biochemical
Source text: Therefore, we characterized the extract of the present invention with respect to its ability to function as an antioxidant. We compared the extract to the known antioxidant t-butylhydroxy toluene (BHT) using a chemiluminescence assay developed in this laboratory. […] Therefore, it is proposed that the extract has anti-HIV effect.
Materials: microperoxidase (MP, Sigma Chemical Company, St. Louis, Mo., U.S.A.), aminobuty ethylisoluminol (ABEI, Sigma Chemical Company, St. Louis, Mo., U.S.A.), t-butylhydroxy toluene (BHT, Sigma Chemical Company, St. Louis, Mo., U.S.A.).
An ABEI-microperoxidase-H2 O2 system was used to assay the antioxidant activity of the extract of the present invention and also that of the known antioxidant BHT. The activity of berberine as an antioxidant was also assessed.
ABEI was used at 0.18 μM. Compounds being assayed were used at 10 mg/ml as a maximum concentration and also at serial dilutions. 200 μL of ABEI, t-butylhydroxy toluene (BHT), pure berberine or the extracted substance at 10 mg/ml (or a serial dilution thereof) were put in a polystyrene tube suitable for use in a Berthold 9502 luminometer. Hydrogen peroxide (0.35%) and microperoxidase (0.01 mg/ml) were autoinjected into the tube to start the chemiluminescence reaction. Chemiluminescence from the reaction was measured for 2 seconds using a Berthold Luminometer 9502 (Clilumat). In control samples distilled water and ethyl alcohol were used. The antioxidant activity of the extract was compared with commercial antioxidant BHT. The antioxidant activity of BHT has been studied for many years (Branen, A. L.; Toxicological and biochemistry of butylated hydrosyanisole and butylated hydroxytoluene. J. Am. Oil Chem. Soc. 52:59, 1975). BHT removes free radicals in oxidation reactions, and it inhibits oxidation of materials.
An antioxidant present in the sample will prevent ABEI from being oxidized by microperoxidase, thus inhibiting chemiluminescence. Antioxidant activity was calculated from the chemiluminescence intensity using the following expression: [formula]

[3] = system: HIV reverse transcriptase; settings: cited from earlier work
[4] = with respect to the template-primer complex, (rA)n, (dT)
[5] = with respect to the triphosphate substrate, dTTP

Compound: c1c2c(cc3c1OCO3)-c1cc3ccc4c(c3c[n+]1CC2)OCO4 [coptisine chloride]
- order of anti-HIV effect (HIV): jatrorrhizine chloride>berberine chloride>coptisine chloride

Compound: COc1ccc2cc3[n+](cc2c1OC)CCc1cc2c(cc1-3)OCO2 [berberine chloride]
- order of anti-HIV effect (HIV): jatrorrhizine chloride>berberine chloride>coptisine chloride

Compound: Cc1cn([C@H]2C[C@H](N=[N+]=[N-])[C@@H](CO)O2)c(=O)[nH]c1=O [AZT, azidothymidine]
- No. of Multiple-Nucleate Cells ([1]; 0.2 μg/mL): 0
- No. of Multiple-Nucleate Cells ([1]; 0.5 μg/mL): 1
- No. of Multiple-Nucleate Cells ([1]; 1 μg/mL): 0
- No. of Multiple-Nucleate Cells ([1]; 5 μg/mL): 0

Compound: COc1ccc2cc3[n+](cc2c1OC)CCc1cc2c(cc1-3)OCO2 [Berberine, berberine]
- inhibition of viral RT activity (reverse transcriptase): marked inhibitory effect on RT activity
- Percentage of inhibition of light intensity ([2]; 0.63 mg/ml): 11%
- Percentage of inhibition of light intensity ([2]; 1.25 mg/ml): 12%
- Percentage of inhibition of light intensity ([2]; 2.5 mg/ml): 12%
- Percentage of inhibition of light intensity ([2]; 5.0 mg/ml): 21%
- Percentage of inhibition of light intensity ([2]; 10.0 mg/ml): 57%
- antioxidant activity compared with the total extract ([2]; 0.63-10.0 mg/ml): much lower
- No. of Multiple-Nucleate Cells ([1]; 0.1 μg/mL): 8
- No. of Multiple-Nucleate Cells ([1]; 0.5 μg/mL): 5
- No. of Multiple-Nucleate Cells ([1]; 1 μg/mL): 2
- No. of Multiple-Nucleate Cells ([1]; 3 μg/mL): 1

Compound: COc1cc2c(cc1O)CC[n+]1cc3c(OC)c(OC)ccc3cc1-2 [jatrorrhizine chloride]
- order of anti-HIV effect (HIV): jatrorrhizine chloride>berberine chloride>coptisine chloride

Compound: O=c1c(O)c(-c2ccc(O)c(O)c2)oc2cc(O)cc(O)c12 [quercetin]
- mode of inhibition [3, 4]: partially competitive
- mode of inhibition [3, 5]: noncompetitive

Compound: O=c1c(O)c(-c2ccc(O)c(O)c2)oc2cc(O)c(O)c(O)c12 [quercetagetin]
- mode of inhibition [3, 4]: partially competitive
- mode of inhibition [3, 5]: noncompetitive

Compound: O=c1cc(-c2ccccc2)oc2cc(O)c(O)c(O)c12 [baicalein]
- mode of inhibition [3, 4]: partially competitive
- mode of inhibition [3, 5]: noncompetitive
